In ChEMBL document CHEMBL3286094, “Synthesis and biological evaluation of novel bisbenzimidazoles as Escherichia coli topoisomerase IA inhibitors and potential antibacterial agents” (J Med Chem, 2014):
Converted amounts (≈) assume the structure as drawn. The source made the active and inactive calls. No cut-off for these calls is given here.

What was measured:
Escherichia coli [1] = experiment: Antibacterial activity against ampicillin/ciprofloxacin/gentamicin/tetracycline-resistant Escherichia coli 555 assessed as growth inhibition after 18 to 24 hrs by broth microdilution method; format: functional
Escherichia coli [2] = experiment: Bactericidal activity against ciprofloxacin-resistant Escherichia coli 72 by agar plating method; format: functional
Escherichia coli [3] = experiment: Bactericidal activity against chloroamphenicol/ampicillin/kanamycin/trimethoprim/ciprofloxacin/nalidixic acid-resistant Escherichia coli 85 by agar plating method; format: functional
Escherichia coli [4] = experiment: Bactericidal activity against ampicillin/tetracycline/gentamicin-resistant Escherichia coli 451 by agar plating method; format: functional
Escherichia coli [5] = experiment: Bactericidal activity against chloramphenicol/ampicillin/trimethoprim/ciprofloxacin/nalidixic acid-resistant Escherichia coli 59 by agar plating method; format: functional
Escherichia coli [6] = experiment: Bactericidal activity against ampicillin/kanamycin/trimethoprim/tetracyclin/ciprofloxacin/nalidixic acid-resistant Escherichia coli 81 by agar plating method; format: functional
Escherichia coli [7] = experiment: Bactericidal activity against chloramphenicol/ampicillin/kanamycin/trimethoprim/ciprofloxacin/nalidixic acid-resistant Escherichia coli 132 by agar plating method; format: functional
Escherichia coli [8] = experiment: Bactericidal activity against ampicillin/ciprofloxacin/gentamicin/tetracycline-resistant Escherichia coli 555 by agar plating method; format: functional
Escherichia coli [9] = experiment: Inhibition of Escherichia coli DNA gyrase using relaxed pHOT1 plasmid DNA as substrate assessed as inhibition of DNA supercoiling up to 100 uM after 30 mins by agarose gel electrophoresis
Escherichia coli [10] = experiment: Antibacterial activity against Escherichia coli DH5[alpha] assessed as growth inhibition after 18 to 24 hrs by broth microdilution method; format: functional
Escherichia coli [11] = experiment: Antibacterial activity against Escherichia coli ATCC 25922 assessed as growth inhibition after 18 to 24 hrs by broth microdilution method; format: functional
Escherichia coli [12] = experiment: Bactericidal activity against Escherichia coli ATCC 25922 by agar plating method; format: functional
Escherichia coli [13] = experiment: Antibacterial activity against ciprofloxacin-resistant Escherichia coli 72 assessed as growth inhibition after 18 to 24 hrs by broth microdilution method; format: functional
Escherichia coli [14] = experiment: Antibacterial activity against ampicillin/trimethoprim/nalidixic acid-resistant Escherichia coli 118 assessed as growth inhibition after 18 to 24 hrs by broth microdilution method; format: functional
Escherichia coli [15] = experiment: Antibacterial activity against chloroamphenicol/ampicillin/kanamycin/trimethoprim/ciprofloxacin/nalidixic acid-resistant Escherichia coli 85 assessed as growth inhibition after 18 to 24 hrs by broth microdilution method; format: functional
Escherichia coli [16] = experiment: Antibacterial activity against gentamicin/kanamycin/tetracycline/nalidixic acid-resistant Escherichia coli 360 assessed as growth inhibition after 18 to 24 hrs by broth microdilution method; format: functional
Escherichia coli [17] = experiment: Antibacterial activity against ampicillin/tetracycline/gentamicin-resistant Escherichia coli 451 assessed as growth inhibition after 18 to 24 hrs by broth microdilution method; format: functional
Escherichia coli [18] = experiment: Antibacterial activity against ampicillin/kanamycin/trimethoprim/tetracyclin/ciprofloxacin/nalidixic acid-resistant Escherichia coli 81 assessed as growth inhibition after 18 to 24 hrs by broth microdilution method; format: functional
Escherichia coli [19] = experiment: Antibacterial activity against chloramphenicol/ampicillin/kanamycin/trimethoprim/ciprofloxacin/nalidixic acid-resistant Escherichia coli 132 assessed as growth inhibition after 18 to 24 hrs by broth microdilution method; format: functional
Escherichia coli [20] = experiment: Antibacterial activity against chloramphenicol/ampicillin/kanamycin/trimethoprim/ciprofloxacin/nalidixic acid-resistant Escherichia coli 151 assessed as growth inhibition after 18 to 24 hrs by broth microdilution method; format: functional
Escherichia coli [21] = experiment: Antibacterial activity against ampicillin/chloramphenicol/ciprofloxacin/gentamicin/tetracycline-resistant Escherichia coli 401 assessed as growth inhibition after 18 to 24 hrs by broth microdilution method; format: functional
Escherichia coli [22] = experiment: Bactericidal activity against ampicillin/tetracycline-resistant Escherichia coli IP18 isolated from water source by agar plating method
Escherichia coli [23] = experiment: Bactericidal activity against tetracycline/trimethoprim-resistant Escherichia coli IST isolated from water source by agar plating method
Escherichia coli [24] = experiment: Bactericidal activity against ampicillin/tetracycline/piperacillin-resistant Escherichia coli WB31 isolated from water source by agar plating method
Escherichia coli [25] = experiment: Bactericidal activity against ampicillin/trimethoprim/piperacillin-resistant Escherichia coli MKNJ isolated from water source by agar plating method
Escherichia coli [26] = experiment: Antibacterial activity against multidrug-resistant Escherichia coli IP9 isolated from water source assessed as growth inhibition after 18 to 24 hrs by broth microdilution method
Escherichia coli [27] = experiment: Antibacterial activity against ampicillin/tetracycline-resistant Escherichia coli IP18 isolated from water source assessed as growth inhibition after 18 to 24 hrs by broth microdilution method
Escherichia coli [28] = experiment: Antibacterial activity against tetracycline/trimethoprim-resistant Escherichia coli IST isolated from water source assessed as growth inhibition after 18 to 24 hrs by broth microdilution method
Escherichia coli [29] = experiment: Bactericidal activity against ampicillin/trimethoprim/cefazolinl/piperacillin/cefuroxime/cefoxitine/cefepime/cefotaxime-resistant Escherichia coli KP21 isolated from water source by agar plating method
Escherichia coli [30] = experiment: Bactericidal activity against cefazolinl/ampicillin/piperacillin/cefuroxime/cefepime/cefotaxime/tetracycline/trimethoprim-resistant Escherichia coli KK16 isolated from water source by agar plating method
Escherichia coli [31] = experiment: Antibacterial activity against ampicillin/trimethoprim/piperacillin-resistant Escherichia coli MKNJ isolated from water source assessed as growth inhibition after 18 to 24 hrs by broth microdilution method
Escherichia coli [32] = experiment: Antibacterial activity against ampicillin/chloramphenicol/tetracycline/trimethoprim/ciprofloxacin-resistant Escherichia coli KK45 isolated from water source assessed as growth inhibition after 18 to 24 hrs by broth microdilution method
Escherichia coli [33] = experiment: Antibacterial activity against ampicillin/trimethoprim/cefazolinl/piperacillin/cefuroxime/cefoxitine/cefepime/cefotaxime-resistant Escherichia coli KP21 isolated from water source assessed as growth inhibition after 18 to 24 hrs by broth microdilution method
Escherichia coli [34] = experiment: Antibacterial activity against cefazolinl/ampicillin/piperacillin/cefuroxime/cefepime/cefotaxime/tetracycline/ciprofloxacin-resistant Escherichia coli NG3 isolated from water source assessed as growth inhibition after 18 to 24 hrs by broth microdilution method
Escherichia coli [35] = experiment: Antibacterial activity against cefazolinl/ampicillin/piperacillin/cefuroxime/cefepime/cefotaxime/tetracycline/trimethoprim-resistant Escherichia coli KK16 isolated from water source assessed as growth inhibition after 18 to 24 hrs by broth microdilution method

CCOc1ccc(-c2nc3ccc(-c4nc5ccc(N6CCN(CCN(C)C)CC6)cc5[nH]4)cc3[nH]2)cc1
MIC50 (Escherichia coli [1]): 32 µg/mL (≈ 62.8 µM) | MIC90 (Escherichia coli [1]): 60.4 µg/mL (≈ 119 µM) | MBC (Escherichia coli [2]): 64 µg/mL (≈ 126 µM) | MBC (Escherichia coli [3]): 32 µg/mL (≈ 62.8 µM) | MBC (Escherichia coli [4]): 64 µg/mL (≈ 126 µM) | MBC (Escherichia coli [5]): 32 µg/mL (≈ 62.8 µM) | MBC (Escherichia coli [6]): 64 µg/mL (≈ 126 µM) | MBC (Escherichia coli [7]): 128 µg/mL (≈ 251 µM) | MBC (Escherichia coli [8]): 64 µg/mL (≈ 126 µM) | inhibition (Escherichia coli [9]): inactive | MIC50 (Escherichia coli [10]): 1 µg/mL (≈ 1.96 µM) | MIC90 (Escherichia coli [10]): 14.5 µg/mL (≈ 28.5 µM) | MIC50 (Escherichia coli [11]): 8 µg/mL (≈ 15.7 µM) | MIC90 (Escherichia coli [11]): 26.6 µg/mL (≈ 52.2 µM) | MBC (Escherichia coli [12]): 16 µg/mL (≈ 31.4 µM) | MIC50 (Escherichia coli [13]): 32 µg/mL (≈ 62.8 µM) | MIC90 (Escherichia coli [13]): 57.2 µg/mL (≈ 112 µM) | MIC50 (Escherichia coli [14]): 8 µg/mL (≈ 15.7 µM) | MIC90 (Escherichia coli [14]): 15.2 µg/mL (≈ 29.8 µM) | MIC50 (Escherichia coli [15]): 16 µg/mL (≈ 31.4 µM) | MIC90 (Escherichia coli [15]): 28.6 µg/mL (≈ 56.1 µM) | MIC50 (Escherichia coli [16]): 64 µg/mL (≈ 126 µM) | MIC90 (Escherichia coli [16]): 121 µg/mL (≈ 237 µM) | MIC50 (Escherichia coli [17]): 32 µg/mL (≈ 62.8 µM) | MIC90 (Escherichia coli [17]): 55.3 µg/mL (≈ 109 µM) | MIC50 (Escherichia coli [18]): 32 µg/mL (≈ 62.8 µM) | MIC90 (Escherichia coli [18]): 60.2 µg/mL (≈ 118 µM) | MIC50 (Escherichia coli [19]): 64 µg/mL (≈ 126 µM) | MIC90 (Escherichia coli [19]): 123 µg/mL (≈ 241 µM) | MIC50 (Escherichia coli [20]): 32 µg/mL (≈ 62.8 µM) | MIC90 (Escherichia coli [20]): 61.6 µg/mL (≈ 121 µM) | MIC50 (Escherichia coli [21]): 16 µg/mL (≈ 31.4 µM) | MIC90 (Escherichia coli [21]): 30.4 µg/mL (≈ 59.6 µM) | MBC (Escherichia coli [22]): 32 µg/mL (≈ 62.8 µM) | MBC (Escherichia coli [23]): 64 µg/mL (≈ 126 µM) | MBC (Escherichia coli [24]): 32 µg/mL (≈ 62.8 µM) | MBC (Escherichia coli [25]): 32 µg/mL (≈ 62.8 µM) | MIC50 (Escherichia coli [26]): 64 µg/mL (≈ 126 µM) | MIC90 (Escherichia coli [26]): 118 µg/mL (≈ 232 µM) | MIC50 (Escherichia coli [27]): 16 µg/mL (≈ 31.4 µM) | MIC90 (Escherichia coli [27]): 30.6 µg/mL (≈ 60 µM) | MIC50 (Escherichia coli [28]): 32 µg/mL (≈ 62.8 µM) | MIC90 (Escherichia coli [28]): 60.6 µg/mL (≈ 119 µM) | MBC (Escherichia coli [29]): 64 µg/mL (≈ 126 µM) | MBC (Escherichia coli [30]): 32 µg/mL (≈ 62.8 µM) | MIC50 (Escherichia coli [31]): 16 µg/mL (≈ 31.4 µM) | MIC90 (Escherichia coli [31]): 30.6 µg/mL (≈ 60 µM) | MIC50 (Escherichia coli [32]): 16 µg/mL (≈ 31.4 µM) | MIC90 (Escherichia coli [32]): 29.4 µg/mL (≈ 57.7 µM) | MIC50 (Escherichia coli [33]): 32 µg/mL (≈ 62.8 µM) | MIC90 (Escherichia coli [33]): 61.4 µg/mL (≈ 120 µM) | MIC50 (Escherichia coli [34]): 8 µg/mL (≈ 15.7 µM) | MIC90 (Escherichia coli [34]): 15 µg/mL (≈ 29.4 µM) | MIC50 (Escherichia coli [35]): 16 µg/mL (≈ 31.4 µM) | MIC90 (Escherichia coli [35]): 27.6 µg/mL (≈ 54.2 µM)
